# What was measured:
# [1] = target: KRAS G12D (Homo sapiens, UniProt P01116, G12D); assay: SOS-catalyzed nucleotide exchange assay, KRAS G12D (Procedure A); type: biochemical; conditions: guanine nucleotide exchange (GNE)
# Outline: (§1)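 60 min cpd preinc. w/ RAS–Bodipy-GDP–Tb-SA complex; + hSOS/GTP (3 mM final), RT. G12C 3 nM RAS/40 nM SOS; WT, G12D 1 nM/40 nM; 60 min rxn. G13D 1.25 nM, no SOS, 30 min rxn. HEPES pH 7.5, 10 mM MgCl2. Ratio 520/495, norm. to DMSO/max-inhibitor ctrls.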
# [2] = target: T1, AsPC-1 cells (Homo sapiens, UniProt P01116, G12D); assay: Cellular phospho-ERK assay, AsPC-1 cells (KRAS G12D); type: cell-based; conditions: 2 hours, read-out: AsPC1 pERK IC50
# T1 construct: p-ERK/total ERK AlphaSureFire read-out
# T1 sequence (P01116 1-188 isoform P01116-2 G12D): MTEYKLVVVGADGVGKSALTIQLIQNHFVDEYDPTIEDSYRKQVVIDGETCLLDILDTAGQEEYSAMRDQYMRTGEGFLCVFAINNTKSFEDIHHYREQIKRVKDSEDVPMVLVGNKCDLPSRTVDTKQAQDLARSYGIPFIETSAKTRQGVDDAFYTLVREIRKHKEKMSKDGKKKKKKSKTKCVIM
# Outline: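 Compound was titrated 10-point in 3-fold steps (top 30 μM) on KRAS G12D homozygous pancreatic lines PANC08.13 and AsPC-1 for 2 h at 37 °C. The p-ERK/total ERK ratio was measured by multiplex AlphaLISA SureFire and fitted with a 4-parameter logistic model to give IC50.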
# [3] = target: KRAS WT (Homo sapiens, UniProt P01116); assay: SOS-catalyzed nucleotide exchange assay, KRAS WT (Procedure A); type: biochemical; conditions: GNE
# KRAS WT, sequence (P01116 with tags, fused parts or gaps isoform P01116-2): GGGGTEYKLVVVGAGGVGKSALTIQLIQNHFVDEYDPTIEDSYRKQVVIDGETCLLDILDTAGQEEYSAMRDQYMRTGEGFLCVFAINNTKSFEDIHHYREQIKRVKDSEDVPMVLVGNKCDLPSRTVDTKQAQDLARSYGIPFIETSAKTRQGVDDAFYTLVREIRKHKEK
# Outline: as §1
# [4] = target: KRAS G12V (Homo sapiens, UniProt P01116, G12V); assay: SOS-catalyzed nucleotide exchange assay, KRAS G12V (Procedure A); type: biochemical; conditions: GNE
# KRAS G12V, sequence (P01116 with tags, fused parts or gaps isoform P01116-2 G12V): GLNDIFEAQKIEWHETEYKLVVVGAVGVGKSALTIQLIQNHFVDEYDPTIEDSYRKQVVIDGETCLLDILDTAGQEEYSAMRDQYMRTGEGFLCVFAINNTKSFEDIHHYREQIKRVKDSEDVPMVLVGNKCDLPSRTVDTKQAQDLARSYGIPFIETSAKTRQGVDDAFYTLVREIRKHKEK
# Outline: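 Biotinylated KRAS G12V was loaded with Bodipy-GDP alongside Terbium-streptavidin to form a TR-FRET complex, which was preincubated with compounds for 60 minutes in 384-well plates. Human SOS protein and unlabeled GTP were then added for 90 minutes, giving final concentrations of 1.25 nM KRAS-G12V, 160 nM SOS and 3 mM GTP. The 520/495 nm emission ratio was read on an Envision.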
# KRAS G12D, sequence (P01116 with tags, fused parts or gaps isoform P01116-2 G12D): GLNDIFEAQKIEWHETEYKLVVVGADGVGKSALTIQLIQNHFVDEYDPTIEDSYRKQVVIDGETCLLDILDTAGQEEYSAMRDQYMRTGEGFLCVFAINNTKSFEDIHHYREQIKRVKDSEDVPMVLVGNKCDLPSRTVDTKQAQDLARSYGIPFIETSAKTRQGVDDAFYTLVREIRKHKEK
SMILES,IC50 [1] [µM],IC50 [2] [µM],IC50 [3] [µM],IC50 [4] [µM]
"C#Cc1c(F)ccc2cc3[nH]ncc3c(-c3nccc4c3sc3nc(OCC5(C#N)CCOCC5)nc(N5C[C@H]6CC[C@@H](C5)N6)c34)c12 [Ex-90, 4-(((4-((1R,5S)-3,8-diazabicyclo[3.2.1]octan-3-yl)-8-(5-ethynyl-6-fluoro-1H-benzo[f]indazol-4-yl)pyrido[4′,3′:4,5]thie-no[2,3-d]pyrimidin-2-yl)oxy)methyl)tetrahy-dro-2H-pyran-4-carbonitrile]",0.187,3.31,> 11.1,> 11.1
"Cc1cc2[nH]ncc2c(-c2nccc3c2sc2nc(OC[C@@]45CCCN4C[C@H](F)C5)nc(N4C[C@@H]5CC[C@H]4CN5)c23)c1C(F)(F)F [Ex-75, 4-((1S,4S)-2,5-diazabicyclo[2.2.2]octan-2-yl)-2-(((2R,7aS)-2-fluorotetrahydro-1H-pyrrolizin-7a(5H)-yl)methoxy)-8-(6-methyl-5-(trifluoromethyl)-1H-indazol-4-yl)pyrido[4′,3′:4,5]thieno[2,3-d]pyrimidine]",0.0381,0.629,3.68,> 11.1
"C#Cc1c(F)ccc2cc3[nH]ncc3c(-c3nccc4c3sc3nc(OC[C@]5(CN6CCN(CC(F)(F)F)CC6)CC5(F)F)nc(N5C[C@H]6CC[C@@H](C5)N6)c34)c12 [Ex-101, 4-((1R,5S)-3,8-diazabicyclo[3.2.1]octan-3-yl)-2-(((R)-2,2-difluoro-1-((4-(2,2,2-trifluoroethyl)piperazin-1-yl)methyl)cyclopropyl)methoxy)-8-(5-ethynyl-6-fluoro-1H-benzo[f]indazol-4-yl)pyrido[4′,3′:4,5]thie-no[2,3-d]pyrimidine]",0.0331,1.21,> 11.1,> 11.1
Cc1cc2[nH]ncc2c(-c2nccc3c2sc2nc(OC[C@@]45CCCN4C[C@H](F)C5)nc(N4[C@@H]5CC[C@H]4CN(CC(C)O)C5)c23)c1C(F)(F)F (stereo partly shown) [Ex-112],6.77,14.7,> 11.1,> 11.1
"C#Cc1c(F)ccc2cc3[nH]ncc3c(-c3nccc4c3sc3nc(OC[C@@]56CCCN5C[C@H](F)C6)nc(N5C[C@H]6CC[C@@H](C5)N6CCCC#N)c34)c12 [Ex-88, 4-((1R,5S)-3-(8-(5-ethynyl-6-fluoro-1H-benzo[f]indazol-4-yl)-2-(((2R,7aS)-2-fluorotetrahydro-1H-pyrrolizin-7a(5H)-yl)methoxy)pyrido[4′,3′:4,5]thieno[2,3-d]pyrimidin-4-yl)-3,8-diazabicyclo[3.2.1]octan-8-yl)butanenitrile]",0.1,0.368,0.743,1.78
"C#Cc1csc2cc3[nH]ncc3c(-c3nccc4c3sc3nc(OCC5(C#N)CCOCC5)nc(N5C[C@H]6CC[C@@H](C5)N6)c34)c12 [Ex-84, 4-(((4-((1R,5S)-3,8-diazabicyclo[3.2.1]oc-tan-3-yl)-8-(5-ethynyl-1H-thieno[3,2-f]indazol-4-yl)pyrido[4′,3′:4,5]thi-eno[2,3-d]pyrimi-din-2-yl)oxy)methyl)tetrahydro-2H-pyran-4-carbonitrile]",0.111,2.94,> 11.1,> 11.1
"Cc1cc2[nH]ncc2c(-c2nccc3c2sc2nc(OCC4CCS(=O)(=O)C4)nc(N4C[C@H]5CC[C@@H](C4)N5)c23)c1C(F)(F)F (stereo partly drawn) [Ex-30, 3-(((4-((1R,5S)-3,8-diazabicyclo[3.2.1]octan-3-yl)-8-(6-methyl-5-(trifluoromethyl)-1H-indazol-4-yl)pyrido[4′,3′:4,5]thieno[2,3-d]pyrimidin-2-yl)oxy)methyl)tetrahydrothio-phene 1,1-dioxide]",2.6,> 30,> 11.1,> 11.1

# The next compounds have a lower IC50 [1] than those just listed; values first:
IC50 [1] [µM],IC50 [2] [µM],IC50 [3] [µM],IC50 [4] [µM],SMILES
0.0259,1.01,> 11.1,> 11.1,"C#Cc1c(F)ccc2cc3[nH]ncc3c(-c3nccc4c3sc3nc(OC[C@]5(CO)CC5(F)F)nc(N5C[C@H]6CC[C@@H](C5)N6)c34)c12 [Ex-109, ((1R)-1-(((4-((1R,5S)-3,8-diazabicyclo[3.2.1]octan-3-yl)-8-(5-ethynyl-6-fluoro-1H-benzo[f]indazol-4-yl)pyrido[4′,3′:4,5]thieno[2,3-d]pyrimidin-2-yl)oxy)methyl)-2,2-difluorocyclopropyl)methanol]"
0.009,0.523,2.05,2.12,"F[C@H]1CN2CCC[C@@]2(COc2nc(N3C[C@H]4CC[C@@H](C3)N4)c3c(n2)C2(CC2)c2c-3ccnc2-c2c(C3CC3)c(Cl)cc3[nH]ncc23)C1 (single isomer, unassigned) [Ex-115]"
0.00852,0.753,> 11.1,> 11.1,"C#Cc1c(F)ccc2cc3[nH]ncc3c(-c3nccc4c3sc3nc(OC[C@]5(CN6CCC7(CCCCC7)CC6)CC5(F)F)nc(N5C[C@H]6CC[C@@H](C5)N6)c34)c12 [Ex-100, 2-(((R)-1-((3-azaspiro[5.5]undecan-3-yl)methyl)-2,2-difluorocyclopropyl)meth-oxy)-4-((1R,5S)-3,8-diazabicyclo[3.2.1]octan-3-yl)-8-(5-ethynyl-6-fluoro-1H-benzo[f]indazol-4-yl)pyrido [4′,3′:4,5]thie-no[2,3-d]pyrimidine]"
0.00543,0.172,1.72,4.4,"C#Cc1c(F)ccc2cc3[nH]ncc3c(-c3nccc4c3sc3nc(OC[C@]5(CN6CCC(COC)CC6)CC5(F)F)nc(N5C[C@H]6CC[C@@H](C5)N6)c34)c12 [Ex-111, 4-((1R,5S)-3,8-diazabicyclo[3.2.1]octan-3-yl)-2-(((R)-2,2-difluoro-1-((4-(methoxymethyl)piperidin-1-yl)methyl)cyclopropyl)methoxy)-8-(5-ethynyl-6-fluoro-1H-benzo[f]indazol-4-yl)pyrido[4′,3′:4,5]thieno[2,3-d]pyrimidine]"
0.00194,0.0484,0.399,0.631,"C#Cc1c(F)ccc2cc3[nH]ncc3c(-c3nccc4c3sc3nc(OC[C@]5(CN6CC7(CCOC7)C6)CC5(F)F)nc(N5C[C@H]6CC[C@@H](C5)N6)c34)c12 [Ex-104, 2-(((1R)-1-(((4-((1R,5S)-3,8-diazabicyclo[3.2.1]octan-3-yl)-8-(5-ethynyl-6-fluoro-1H-benzo[f]indazol-4-yl)pyrido[4′,3′:4,5]thie-no[2,3-d]pyrimidin-2-yl)oxy)methyl)-2,2-difluorocyclopropyl)meth-yl)-6-oxa-2-azaspiro[3.4]octane]"
0.00193,0.00629,0.0125,0.0162,"C#Cc1c(F)sc2cc3[nH]ncc3c(-c3nccc4c3sc3nc(OC[C@@]56CCCN5C[C@H](F)C6)nc(N5C[C@H]6CC[C@@H](C5)N6)c34)c12 [Ex-82, 4-((1R,5S)-3,8-diazabicyclo[3.2.1]oc-tan-3-yl)-8-(5-ethynyl-6-fluoro-1H-thieno[3,2-f]indazol-4-yl)-2-(((2R,7aS)-2-fluorotetrahydro-1H-pyrrolizin-7a(5H)-yl)methoxy)pyri-do[4′,3′:4,5]thi-eno[2,3-d]pyrimidine]"
0.00181,0.097,0.0362,0.0377,"C#Cc1c(F)ccc2cc3[nH]ncc3c(-c3nccc4c3sc3nc(OC[C@@]56CCCN5C/C(=C\F)C6)nc(N5C[C@@H]6C[C@H](O)[C@H](C5)N6)c34)c12 [Ex-114, (1S,5S,6S)-3-(8-(5-ethynyl-6-fluoro-1H-benzo[f]indazol-4-yl)-2-(((S,Z)-2-(fluoromethylene)tetrahydro-1H-pyrrolizin-7a(5H)-yl)methoxy)pyrido[4′,3′:4,5]thieno[2,3-d]pyrimidin-4-yl)-3,8-diazabicyclo[3.2.1]octan-6-ol]"
0.00162,0.0162,0.215,0.372,"C#Cc1c(F)ccc2cc3[nH]ncc3c(-c3nccc4c3sc3nc(OC[C@@]56CCCN5C[C@@H](F)C6)nc(N5CC6CCC(C5)N6)c34)c12 [Ex-108, 4-(3,8-diazabicyclo[3.2.1]octan-3-yl)-8-(5-ethynyl-6-fluoro-1H-benzo[f]indazol-4-yl)-2-(((2S,7aS)-2-fluorotetrahydro-1H-pyrrolizin-7a(5H)-yl)methoxy)pyrido[4′, 3′:4,5]thieno[2,3-d]pyrimidine]"
0.00143,0.0425,0.43,0.704,"C#Cc1csc2cc3[nH]ncc3c(-c3nccc4c3sc3nc(OC[C@]5(CN6CC7(C6)CC(F)(F)C7)CC5(F)F)nc(N5C[C@H]6CC[C@@H](C5)N6)c34)c12 [Ex-83, 4-((1R,5S)-3,8-diazabicyclo[3.2.1]octan-3-yl)-2-(((R)-1-((6,6-difluoro-2-azaspiro[3.3]heptan-2-yl)methyl)-2,2-difluorocyclopropyl)methoxy)-8-(5-ethynyl-1H-thieno[3,2-f]indazol-4-yl)pyrido[4′,3′:4,5]thieno[2,3-d]pyrimidine]"
